Experimental data as given in patent US20210315921A1, “Compounds and Methods for Modifying iAge” (Edifice Health, Inc,, priority 2020, published 2021).

Columns and labels:
estrogen levels = conditions: while raising testosterone levels; cited from earlier work
Mouse thoracic aortas = assay: Acetylcholine relaxation of mouse thoracic aortic rings after exposure to MIG (wire myograph); conditions: mouse thoracic aortic sections, precontracted with U46619, increasing concentrations of recombinant mouse MIG
Experimental: Mouse thoracic aortas were carefully dissected, and vessels were cut into small rings and mounted on an isometric wire myograph chambers (Danish Myo Technology) and subjected to a normalization protocol. Following normalization, the vessels were incubated with either PBS or different concentrations of recombinant mouse MIG (R&D systems, catalog number 492-MM). A concentration-dependent contraction curve was created by accumulative application of the prostaglandin agonist U46619. Subsequently, concentration-dependent relaxation curves of Acetylcholine were conducted on these vessels and percent relaxation calculated for each dose.

N#Cc1ccc(C(c2ccc(C#N)cc2)n2cncn2)cc1 [Letrozole]
reduction of estrogen levels (estrogen levels): 98%

B1: MIG: recombinant mouse MIG (R&D systems, catalog number 492-MM), monokine induced by gamma interferon (protein, UniProt P18340 22-126, looked up)
C-X-C motif chemokine 9: TLVIRNARCSCISTSRGTIHYKSLKDLKQFAPSPNCNKTEIIATLKNGDQTCLDPDSANVKKLMKEWEKKISQKKKQKRGKKHQKNMKNRKPKTPQSRRRSRKTT
effect on vasorelaxation to Acetylcholine (Mouse thoracic aortas): dose-dependent effect on vasorelaxation
